Key:
ApoE −/− mice [1] = experiment: Abdominal fatty mass, ApoE mice on regimen rich in cholesterol and fat; type: in vivo; settings: 1 mg/kg, 3 months
Source text: (§1) Firstly, mice devoid of the coding gene for Apo lipoprotein E (ApoE −/−) have been used. These mice represent a model of choice of studying early atherosclerosis and development of a plaque rich in foamy macrophages. Male C57BL/6J mice homozygote for deletion of the ApoE gene were subjected to a normal dietary regimen until the age of eight weeks. These mice (n=8 per group) subsequently received ad libitum and for 12 weeks either a dietary regimen not enriched with cholesterol or fat, or an enriched regimen, containing 1.5 g/kg of cholesterol and 200 g/kg of fat of milk origin. The untreated mice underwent daily intraperitoneal injections of a solution containing DMSO at 10%. The treated mice received by intraperitoneal injection the same solution containing 2 or 20 μg (i.e. 0.1 mg/kg/day or 1 mg/kg/day) of the compound CGP 02-01. Following the blood sample for the biochemical analyses, the mice were killed.
ApoE mice subjected to a dietary regimen rich in cholesterol and fat were killed after 3 months of treatment with the compound CGP 02-01 at doses of 0.1 mg/kg and 1 mg/kg. The abdominal fatty mass was recovered by dissection, dried and expressed as dry weight.

ApoE negative mice = experiment: Histological analysis of the aortic lesions (atheroma plaque) of ApoE negative mice; type: in vivo; settings: aorta of treated vs untreated mice; FIG. 6
Source text: as §1
The aortas of the mice are fixed with paraformaldehyde and are dissected into 10 μm sections for histological analysis of the lesions (FIG. 6).

Wistar rats [2] = experiment: Total cholesterol in plasma, rats on dietary regimen rich in fructose; type: in vivo; settings: 50 mg/kg oral, 3 weeks of treatment
Experimental: Secondly, the activity of the compound CGP 02-01 was studied using a reference rat-fructose model. Groups of Wistar rats (n=12) were subjected for 3 weeks to a dietary regimen containing […] of fructose. Under these conditions, the rats develop a metabolic syndrome comprising hyperglycaemia, hyperinsulinaemia, hypercholesterolaemia and hypertriglyceridaemia. Groups of rats subsequently received by forced feeding 50 mg/kg of the compound CGP 02-01 dissolved in a 2% tween solution prepared in methylcellulose. The blood samples for the biochemical analyses were performed after 1, 2 and 3 weeks. Independent groups of rats wee treated under the same conditions with metformin hydrochloride at a dose of 50 mg/kg. The metformin served as a reference in this metabolic syndrome model. The circulating total cholesterol may be measured by enzymatic assay using the commercially available kit. This assay may for example use an enzymatic sequence of the cholesterol-esterase/cholesteroloxydase/chromogenic peroxidase type. In summary, the total esterified cholesterol is transformed into free cholesterol and fatty acid by the action of cholesterol esterase. The non-esterified cholesterol is subsequently measured by the formation of quinoeimine in the presence of cholesterol oxidase and peroxidise. The intensity of the quinoneimine coloration is proportional to the quantity of cholesterol present in the sample.

Wistar rats [3] = experiment: Insulin in plasma, rats on dietary regimen rich in fructose; type: in vivo; settings: 50 mg/kg oral
Experimental: Secondly, the activity of the compound CGP 02-01 was studied using a reference rat-fructose model. Groups of Wistar rats (n=12) were subjected for 3 weeks to a dietary regimen containing […] of fructose. […] Groups of rats subsequently received by forced feeding 50 mg/kg of the compound CGP 02-01 dissolved in a 2% tween solution prepared in methylcellulose. The blood samples for the biochemical analyses were performed after 1, 2 and 3 weeks. Independent groups of rats wee treated under the same conditions with metformin hydrochloride at a dose of 50 mg/kg. The metformin served as a reference in this metabolic syndrome model. Assay of insulin in plasma may be performed by radioimmunological assay using commercially available kits comprising specific anti-insulin antibodies of mice or rats. One may for example use the rat/mouse ELISA kits, Linco research (ref. EZRMI-13K).

ApoE −/− mice [4] = experiment: Total cholesterol in plasma, ApoE −/− mice on dietary regimen rich in cholesterol; type: in vivo; settings: for Plasma total cholesterol level: untreated 7.27 ± 0.55
Source text: as §1, with “The treated mice received by intraperitoneal injection the same solution containing 2 or 20 μg (i.e. 0.1 mg/kg/day or 1 mg/kg/day) of the compound CGP 02-01.” left out
The circulating total cholesterol may be measured by enzymatic assay using the commercially available kit. This assay may for example use an enzymatic sequence of the cholesterol-esterase/cholesteroloxydase/chromogenic peroxidase type. In summary, the total esterified cholesterol is transformed into free cholesterol and fatty acid by the action of cholesterol esterase. The non-esterified cholesterol is subsequently measured by the formation of quinoeimine in the presence of cholesterol oxidase and peroxidise. The intensity of the quinoneimine coloration is proportional to the quantity of cholesterol present in the sample.
When mice are subjected to a dietary regimen rich in cholesterol, the total cholesterol level decreases from a value of 7.27±0.55 g/L to a value of 6.86±0.65 g/L, i.e. a variation of 5.6%. This effect observed is dependent on the dose of CGP 02-01.

ApoE −/− mice [5] = experiment: Circulating triglycerides, ApoE −/− mice on regimen rich in cholesterol and fat; type: in vivo; settings: 1 mg/kg; 3 months
Source text: as §1, with “Following the blood sample for the biochemical analyses, the mice were killed.” left out
Assay of serum triglycerides may be performed enzymatically using the commercially available kit. […] The glycerol 3 phosphate is subsequently transformed into dihydroxyacetone in generating oxygenated water (H202) which may be detected by formation of quinoneimine in the presence of parachlorophenol, amino-4-antipyrin and peroxidase. The intensity of the quinoneimine coloration is subsequently measured at 505 nm. This coloration is proportional to the quantity of triglycerides present in the sample.

ApoE −/− mice [6] = experiment: Free cholesterol in plasma, ApoE −/− mice on normal non-enriched dietary regimen; type: in vivo; settings: 1 mg/kg; 3 months; p<0.05
Source text: as §1
Measurement of free cholesterol may be performed by an enzymatic method. The free cholesterol is oxidised by cholesterol oxidase into Delta 4 cholestenon and simultaneously produces hydrogen peroxide. The hydrogen peroxide subsequently allows oxidative condensation of the DHESA and the aminoantipyrinre, producing a blue colour. The quantity of free cholesterol is subsequently measured by the absorbance of the blue colour. […]

In the case of COc1cc(O)c(/C=N/NC(=O)c2cc3ccccc3s2)c(OC)c1 [CGP02-01, N′-[(1E)-(2-hydroxy-4,6-dimethoxyphenyl)methylene]-1-benzothiophene-2-carbohydrazide], the “Reduction in abdominal fatty mass” value (ApoE −/− mice [1]) is reported as 48.3%, the “Abdominal fatty mass (dry weight)” value (ApoE −/− mice [1]; control 760±231, p<0.01) is reported as 393 ± 78 mg and the “Foamy macrophages and inflammatory reaction in the atheroma plaque” value (ApoE negative mice) is reported as “significant reduction in these macrophages”. The “Reduction in total cholesterol” value (Wistar rats [2]) was 54.5%, the “Plasma total cholesterol level” value (Wistar rats [2]; control 0.79±0.05) was 0.36 ± 0.03 g/L and the “Variation (reduction) of insulin level” value (Wistar rats [3]) was 11.3%. For the same molecule, the Plasma insulin level (Wistar rats [3]; 3 weeks, control 1.85±0.04) was 1.64 ± 0.03 ng/mL, the melting point was 205.4 °C and the “Plasma total cholesterol level” value (ApoE −/− mice [4]; 0.4 mg/kg) was 8.08 ± 0.62 g/L. For the same molecule, the “Variation of total cholesterol level vs untreated” value (ApoE −/− mice [4]; 1 mg/kg, 3 months) was 5.6%, the “Plasma total cholesterol level” value (ApoE −/− mice [4]; 1 mg/kg, 3 months) was 6.86 ± 0.65 g/L and the “Variation of plasma triglyceride level, treated in relation to untreated mice” value (ApoE −/− mice [5]) was “twice as great”. For the same molecule, the “Effect on plasma free cholesterol variation vs untreated” value (ApoE −/− mice [6]) was 22.7%.

From patent US20070161697A1, “Hydrazide type compounds and the use thereof in pharmaceutical compositions for the treatment of cardiovascular diseases” (priority 2004, published 2007)
